In brackets after ≈: the same amount, converted by molar mass.
How the values were obtained:
[1] = system: primary human fetal RPE (hfRPE) culture; experiment: Autophagy induction by LC3 puncta formation (immunocytochemistry); assay type: cell-based; conditions: 24 hours exposure
Experimental: (§1) Cell cultures were exposed to each putative autophagy inducer at a concentration indicated in Table 1 for 24 hours, lysed with 36 μL of SDS sample buffer with β-mercaptoethanol, with 15 μg of lysate loaded on a 4-15% gradient gel followed by transfer to a PVDF membrane. Blots were incubated with 1:1000 of LC3A/B antibody (Cell Signaling Technology; #4108s, RRID:AB_2137703) overnight. Quantifying LC3-II/LC3-I ratio is a well-accepted method for det 306 ermining autophagy induction [Ref. 44; incorporated by reference in its entirety], and this ratio was quantified in a non-saturated, linear range using the Azure c500 Imaging System (Azure Biosystems, Dublin, CA, USA) and a combination of AzureSpot and ImageJ software. The data in FIG. 2A are not normalized, whereas the data in FIGS. 2b and 1c are normalized to the average combined value of the vehicle and drug groups within each experimental repeat. The extreme pigmentation of human fetal cultures, combined with the destruction of the LC3 epitope with melanin bleaching protocols, makes detection of LC3 by microscopy in hfRPE difficult. A range of LC3 staining and puncta quantification protocols specifically adapted to pigmented hfRPE culture were employed [Ref. 43; incorporated by reference in its entirety]. At least five fields of view were randomly chosen and analyzed per experimental replicate for LC3 immunocytochemistry.
Autophagy induction was confirmed by assaying the formation of LC3-positive puncta (autophagosomes) by immunocytochemistry [Ref. 44; incorporated by reference in its entirety]. Puncta formation was quantified in automated/unbiased fashion using a customized macro in the Fiji/ImageJ platform [Ref. 43; incorporated by reference in its entirety].
Autophagy induction was measured by LC3 puncta on immunocytochemistry (standard method for autophagy induction) (FIG. 19). Drugs applied to primary human RPE culture for 24 hours.

[2] = system: primary hfRPE culture; experiment: Undigestible autofluorescent material (UAM) accumulation, elimination and granule size after oxOS feedings; assay type: cell-based, human
[3] = system: RPE of mouse eye; experiment: Intravitreal injection in mouse eyes, autophagy by LC3II/LC3I ratio of lysates; assay type: in vivo; conditions: four concentrations up to 500 uM, multiple timepoints, DMSO in other eye
Experimental: Experiments were conducted during development of embodiments herein to assay for autophagy in the mouse eye. Experiments were conducted to measure autophagy by giving an intraperitoneal injection of leupeptin, followed by assaying for LC3 puncta in an RPE flatmount of a GFP-LC3 mouse. Background from GFP-LC3 debris deposited on the RPE when the retina was peeled off for the flat mount prevented signal detection. A biochemical assay was then employed for autophagy induction, measuring an increase in the lipidation of the autophagy core protein LC3 (lipidated LC3=LC3-II, unlipidated LC3=LC3-I, so higher LC3-II/LC3-I ratio indicates autophagy induction). Sufficient signal as obtained. […] Harvesting techniques were also optimized for collecting RPE from mouse eyes.
Experiments were conducted during development of embodiments herein to establish a positive control for autophagy induction. […] Autophagy induction was measured at 4 different concentrations of Torin (500 nm, 5 um, 50 um, 500 um) and at 5 different timepoints after injection (1 day, 3 days, 7 days, 14 days, 28 days). […] Nevertheless, the ability of intravitreal injections of FLBZ to induce autophagy in the RPE was assessed. In preparation for injecting FLBZ intravitreally into mice, solubility assays were performed and the maximum amount of FLBZ that can be injected without it crashing out of solution in the vitreous was determined. […]

[4] = system: primary human fetal RPE (hfRPE) culture; experiment: Autophagy induction by LC3 lipidation (LC3-II/LC3-I ratio) on Western blot; assay type: cell-based; conditions: 24 hours exposure, vs vehicle (DMSO)
Experimental: as §1
To test for autophagy induction, lipidation of the core autophagy protein LC3 was measured by mobility shift on Western blots 24 hours after each compound was added to hfRPE cultures [Ref. 44; incorporated by reference in its entirety]. […] Of the more than 30 putative autophagy inducers tested, only five produced an increased ratio of LC3-II/LC3-I, consistent with increased autophagy (FIG. 2a).
Autophagy induction was measured by LC3-II/LC3-I Ratios on Western Blot (standard method for autophagy induction) (FIG. 18A-C). Drugs were applied to primary human RPE culture for 24 hours.

[5] = Solubility assays of DMSO stock mixed with PBS (simulating the vitreous); assay type: physicochemical
Experimental: Experiments were conducted during development of embodiments herein to establish a positive control for autophagy induction. The direct mTOR inhibitor Torin1 was selected over rapamycin/sirolimus as the positive control, based on the capacity of Torin1 to induce autophagy in primary culture more strongly and more consistently than rapamycin. The experimental set-up involved injecting one eye with Torin and the other eye with the DMSO vehicle. Autophagy induction was measured at 4 different concentrations of Torin (500 nm, 5 um, 50 um, 500 um) and at 5 different timepoints after injection (1 day, 3 days, 7 days, 14 days, 28 days). […] Nevertheless, the ability of intravitreal injections of FLBZ to induce autophagy in the RPE was assessed. In preparation for injecting FLBZ intravitreally into mice, solubility assays were performed and the maximum amount of FLBZ that can be injected without it crashing out of solution in the vitreous was determined. […] This helped inform maximal concentrations of flubendazole that could be injected intravitreally. Four different concentrations were injected, up to the maximum solubility of FLBZ, and autophagy induction was assayed over a timeframe ranging from 1 week to 4 weeks after injection.

[6] = system: primary RPE cultures; experiment: APOE secretion by western blotting of supernates; assay type: cell-based, human; conditions: 24 hours
Experimental: (§2) After 24 hours of exposure to drugs, supernates were collected and subjected to western blotting for APOE detection and a fluorometric assay for β-HB detection [Ref 51; incorporated by reference in its entirety]. Twenty microliters of apical and basolateral supernates for APOE were mixed with SDS sample buffer and blotted with antibody at a dilution of 1:2000. APOE and β-HB values were normalized to the average value of the vehicle and experimental group within each experimental repeat.
(§3) The RPE handles an enormous lipid burden on a daily basis, including OS ingestion from its apical side and lipoprotein particle absorption from its basolateral side. Rather than storing excess lipid, the RPE may choose to degrade or secrete surplus lipids (FIG. 4a). A marker of lipid degradation is the production of KBs, which are secreted by the RPE apically and serve as an energy source for photoreceptors [Refs. 7,8; incorporated by reference in their entireties]. A marker of lipid secretion is the production of the lipoprotein APOE, which is a major component of drusen [Ref. 50; incorporated by reference in its entirety]. It was contemplated that autophagy inducers promote ketogenesis through degradation of ingested lipids, reducing the stimulus for secretion of drusen-promoting APOE.

[7] = system: primary RPE cultures; experiment: Ketone body production (β-hydroxybutyrate, β-HB) fluorometric assay; assay type: cell-based, human; conditions: 24 hours, apical supernate
Experimental: as §2, §3

For COC(=O)Nc1nc2cc(C(=O)c3ccc(F)cc3)ccc2[nH]1 [FLBZ, Flubendazole], which “LC3 puncta formation (autophagy induction)” value [1] is on record?
Its value is “induced autophagy”.

And the “UAM granule size, drug during oxOS feedings” value ([2]; concurrent feeding of oxOS and drug)?
Its value is “smaller than untreated cultures”.

And the “UAM accumulation, drug fed concurrently with oxOS” value ([2]; fed daily with oxOS over a month, FLBZ 12 μM, Torin 1 μM, vs vehicle)?
The value was “significantly less UAM accumulation”.

What about the “UAM granule size, drug after UAM buildup” value ([2]; twenty drug feedings after UAM accrual) of the same compound?
The value was “smaller granule size”.

What about the “UAM level, drug fed after UAM had accumulated” value ([2]; twenty oxOS feedings, wash, then twenty drug feedings over an additional month) of the same compound?
The value was “significantly lower levels of UAM”.

And the “Autophagy induction in RPE after intravitreal injection (LC3II/LC3I ratio)” value [3]?
The value was “no convincing evidence for autophagy induction”.

What about the “LC3-II/LC3-I ratio (autophagy induction)” value [4] of the same compound?
The value was “Induction of autophagy”.

What about the solubility ([5]; DMSO stock solution mixed with PBS (simulating the vitreous), aqueous with cosolvent or surfactant or cyclodextrin, kinetic from dmso stock, delivered in 1 ul of DMSO, read-out: Maximum soluble concentration for intravitreal injection) of the same compound?
Its solubility is 500 µM (≈ 157 µg/mL).

And the “Precipitation of DMSO stock solution when mixed with PBS” value ([5]; Torin 1 mM stock mixed 1:1 with PBS, flubendazole 3 mM stock)?
The value was “crashed out when mixed with PBS unless at a dilution of 1:20 or more”.

What about the “APOE secretion, apical and basolateral” value [6] of the same compound?
The value was “reduced the apical and basolateral secretion of APOE”.

And the “β-hydroxybutyrate (β-HB) production” value [7]?
The value was “increased production”.
